Read-outs that look alike come from different tables or passages of the source.
Legend:
Type in all cases: in vivo, mice (C57BL/6J)
[1] = tested on: unilateral ureteral obstruction (UUO) mouse model; assay: Curative treatment in UUO-induced tubulointerstitial fibrosis: immunohistochemistry and Sirius red histology; details: curative: 25 mg/kg daily gavage from day 3 after UUO for 5 days; vs UUO + vehicle; n = 7
Protocol: The unilateral ureteral ligation was performed as previously described. Briefly, under oxygen-isoflurane anesthesia and through a longitudinal, left abdominal incision, the ureter was exposed and ligated with a 6/0 nylon thread at the uretero-pelvic junction. In sham operations, the ureter was exposed but not ligated and repositioned. To reduce pain Buprenorphine (0.01 mg/kg) (Buprecare […], France) was injected i.p before surgery and 12 h later. […] A. borbonica polyphenol extract (25 mg/kg) or CA (25 mg/kg) were resuspended in distilled water just before gavage. The control group received only the vehicle (distilled water). At the end of the different protocols, mice were sacrificed and the kidneys were removed, and a transverse section was fixed in Carnoy's solution for 24 h and subsequently embedded in paraffin for immuno-histological analysis. Several pieces of renal cortex were snap-frozen in liquid nitrogen and stored at -80 °C for mRNA, enzyme activities and MS/MS analysis. Kidneys were fixed in Carnoy's solution, dehydrated and embedded in paraffin. From kidney sections, routine histology and immunohistological staining and analysis were performed as previously described. Three to four μm thickness sections were cut and used for routine staining (hematoxylin-eosin and Sirius red staining) and immunohistochemistry. […] For immunohistochemistry, mouse renal tissue was first de-waxed in toluene and rehydrated through a series of graded ethanol washes before incubation with 3% hydrogen peroxide for 10 min at room temperature to block endogenous peroxidase activity. […] The sections were subsequently stained with the Dako Envision system ([…] (primary antibodies from mouse) and K4002 (primary antibodies from rabbit)) according to manufacturer's instruction. Sections were finally counterstained with hematoxylin. Negative controls for the immunohistochemical procedures included substitution of the primary antibody with nonimmune sera at a similar immunoglobin concentration. […]

[2] = tested on: mRNA of inflammatory, fibrotic and antioxidant genes in obstructed kidney; assay: Curative treatment in UUO: RT-qPCR of obstructed kidney; details: curative: 25 mg/kg daily gavage from day 3 after UUO for 5 days
Protocol: The unilateral ureteral ligation was performed as previously described. Briefly, under oxygen-isoflurane anesthesia and through a longitudinal, left abdominal incision, the ureter was exposed and ligated with a 6/0 nylon thread at the uretero-pelvic junction. In sham operations, the ureter was exposed but not ligated and repositioned. To reduce pain Buprenorphine (0.01 mg/kg) (Buprecare […], France) was injected i.p before surgery and 12 h later. […] A. borbonica polyphenol extract (25 mg/kg) or CA (25 mg/kg) were resuspended in distilled water just before gavage. The control group received only the vehicle (distilled water). At the end of the different protocols, mice were sacrificed and the kidneys were removed, and a transverse section was fixed in Carnoy's solution for 24 h and subsequently embedded in paraffin for immuno-histological analysis. Several pieces of renal cortex were snap-frozen in liquid nitrogen and stored at -80 °C for mRNA, enzyme activities and MS/MS analysis. Total RNA was isolated from mouse kidneys with TRIzol^TM reagent (Invitrogen). […] The quantitative real-time polymerase chain reaction was performed in a 96 well plate using SYBR green^TM master mix (Eurogentec). Analysis of GAPDH was performed to normalize gene expression and the relative mRNA fold changes between groups were calculated using the 2^-^ΔΔ^Ct method.

[3] = tested on: Mn-SOD, Cu/Zn-SOD, GPX, CAT activities in obstructed kidney; assay: Curative treatment in UUO: antioxidant enzyme activities in kidney tissue; details: curative: 25 mg/kg, 5 days; vs UUO + vehicle
Protocol: After centrifugation (5000× g[…], for 10 min), the supernatant was used for protein quantification and enzymatic assays. The total protein level of lysate was quantified by the bicinchoninic acid assay (BCA). SOD activity was assayed by monitoring the rate of acetylated cytochrome c reduction by superoxide radicals generated by the xanthine/xanthine oxidase system. Measurements were performed in a reagent buffer (xanthine oxidase, xanthine (0.5 mM), cytochrome c (0.2 mM), KH2PO4 (50 mM), EDTA (2 mM), pH 7.8) at 25 °C. The specific MnSOD activities were determined in the same conditions after incubation of samples with NaCN (1 mM) which inhibits Cu/ZnSOD activities. Assays were monitored by spectrophotometry at 560 nm. SOD activities were calculated using a calibration standard curve of SOD (up to 6 unit/mg). Total SOD, MnSOD and resulting Cu/ZnSOD activities were expressed as international catalytic units per mg of proteins. The total activity of glutathione peroxidase (GPX) was determined with cumene hydroperoxide as substrate. The rate of glutathione oxidized by cumene hydroperoxide (6.5 mM) was evaluated by the decrease in NADPH (0.12 mM in Tris buffer) at 340 nm in the presence of NaCN (10 mM), reduced glutathione (0.25 mM) and glutathione reductase (1 U/mL) in Tris buffer (50 mM, pH 8). GPX activity was expressed as international units per gram of proteins. The catalase (CAT) activity assay was carried out on 40 µg of protein lysate in 25 mM Tris–HCl (pH 7.5). Blanks were measured at 240 nm just before adding 80 µL of H2O2 (10 mM final) to start the reaction. Catalase activity was determined by measuring the absorbance at 240 nm and was calculated using a calibration standard curve of an increasing amount of catalase between 12.5 and 125 unit/mL. Catalase activity was expressed as international catalytic units per mg of proteins.

[4] = tested on: protein carbonyl in obstructed kidney; assay: Curative treatment in UUO: protein carbonylation (carbonyl ELISA); details: curative: 25 mg/kg, 5 days; vs UUO + vehicle
Protocol: The protein carbonylation was determined as described previously by the carbonyl ELISA assay based on the recognition of protein-bound DNPH in carbonylated proteins with an anti-DNP antibody.

[5] = Biodistribution of caffeic acid and ferulic acid after A. borbonica extract (UPLC-MS); details: for concentration at 24 h: C57BL/6J, mouse, oral, 25 mg/kg; for Concentration in urine: urine collected overnight
Protocol: Polyphenolic extract from A. borbonica was prepared by dissolving 1 g of crushed leaves in 25 mL of an aqueous acetonic solution (70%, v/v). After incubation at 4 °C for 90 min, the mixture was centrifuged at 3500× g […] at 4 °C for 20 min and polyphenol-rich supernatant was collected and stored at −80 °C until analysis. Identification of polyphenols was carried out by ultra-high-performance liquid chromatography (UHPLC) coupled with diode array detection and a HESI-Orbitrap mass spectrometer (Q Exactive Plus, Thermo Fisher). A 10 µL sample volume was injected using an UHPLC system equipped with a Thermo Fisher Ultimate 3000 series WPS-3000 RS autosampler and then separated on a PFP column (2.6 μm, 100 mm × 2.1 mm, Phenomenex, Torrance, CA, USA). The column was eluted with a gradient mixture of 0.1% formic acid in water (A) and 0.1% formic acid in acetonitrile (B) at the flow rate of 0.450 mL/min, with 5% B at 0.00 to 0.1 min, 35% B at 0.1 to 7.1 min, 95% B at 7.2 to 7.9 min and 5% B at 8.0 to 10 min. The column temperature was held at 30 °C and the detection wavelengths were set to 280 and 310 nm.
For mass spectrometer conditions, a Heated Electrospray Ionization source II (HESI II) was used. Nitrogen was used as drying gas. The mass spectrometric conditions were optimized as follows: spray voltage = 2.8 kV, capillary temperature = 350 °C, sheath gas flow rate = 60 units, aux gas flow rate = 20 units and S lens RF level = 50. Mass spectra were registered in full scan mode from m/z 100 to 1500 in negative ion mode at a resolving power of 70,000 FWHM at m/z 400. The automatic gain control (AGC) was set at 1e6. The MS/MS spectra were obtained by applying a relatively higher energy collisional dissociation (HCD) energy of 25%.
For biodistribution study, one day before sacrifice animals were placed in metabolic cages to collect urine overnight. CA and its metabolites were measured by UPLC-MS/MS in liver and kidney tissues and urine.

[6] = Plasma and kidney pharmacokinetics after a single oral dose of CA in UUO mice; details: single oral dose of CA 25 mg/kg, 3 days-UUO mice; for Cmax: n = 3/time, read-out: Cmax (peak plasma concentration)
Protocol: For pharmacokinetics study, the animals were submitted to UUO and 3 days later they were fasted overnight and then treated with a single dose of CA (25 mg/kg) or vehicle (n = 3/group). Blood samples (90 µL) were collected at time 0 (before treatment), 30 min, 60 min, 180 min and 360 min post-treatment. CA concentrations were measured by UPLC-HESI-Q-orbitrap (Q Exactive Plus).
To this end, three days after UUO, mice were administrated by oral route a unique dose of CA (25 mg/kg) and then were sacrificed at 30, 60, 180 and 360 min.

[7] = DESI-HR/MS imaging of obstructed kidney; details: 1 h post oral administration of CA 25 mg/kg, UUO mice
Protocol: The 2D automated Omni Spray Kidney tissues were flash-frozen in nitrogen and stored at −80 °C before DESI-HR/MS imaging. For DESI-MS imaging and histology, 12 μm thickness kidney sections were collected and mounted on SuperFrost™ Plus glass slides.
The 2D automated Omni Spray ion source from Prosolia Inc. (Indianapolis, IN, USA) coupled to a Q-Exactive™ Plus mass spectrometer (Thermo Fisher Scientific, Bremen, Germany) was used to perform the mass spectrometry imaging experiment. A solution of methanol with 0.1% formic acid (HPLC-MS grade, Carlo Erba) was used as the extraction and ionization spray solvent, delivered by a syringe pump at a flow rate of 5 μL/min. All imaging experiments were carried out with the following experimental conditions including source parameters: 2.8 kV capillary voltage, 250 °C capillary temperature, 60% S-lens RF level and 86 psi nitrogen nebulizing gas pressure, and including geometrical parameters: ∼1 mm spray tip-to-surface distance and a spray incident angle of 60°. Mass spectra were registered in full scan mode with the mass spectrometer operating in negative mode. Survey full scan mass spectra were acquired in the 50 to 500 m/z range at resolving power 70,000 (at m/z 400) with an automatic gain control (AGC) target of 3^6 and maximum injection time of 200 ms. […]

[8] = liver, read-out: Concentration in liver
[9] = UUO mice after ingestion of 25 mg/kg A. borbonica extract (gavage), n = 7, mean ± SD
[10] = C57BL/6J, mouse, contralateral kidney, read-out: AUC (0-360) in contralateral kidney (converted)
[11] = C57BL/6J, mouse, contralateral kidney, read-out: concentration in contralateral kidney one hour after CA administration
[12] = C57BL/6J, mouse, obstructed kidney, read-out: AUC (0-360) in obstructed kidney (converted)
[13] = C57BL/6J, mouse, obstructed kidney, read-out: concentration in obstructed kidney one hour after CA administration
[14] = C57BL/6J, mouse, plasma, 0 to 360 min, read-out: AUC (0-360) in plasma (converted)

Row | SMILES | concentration at 24 h [5, 8] [µM] | Concentration in urine [5, 9] [µM] | AUC(0-t) [6, 10] [µM·h] | concentration at 1 h [6, 11] [µM] | AUC(0-t) [6, 12] [µM·h] | concentration at 1 h [6, 13] [µM] | AUC(0-t) [6, 14] [µM·h] | Cmax ([6]; C57BL/6J, mouse, plasma) [µM] | tmax ([6]; plasma) | further results
1 | O=C(O)/C=C/c1ccc(O)c(O)c1 [Caffeic acid, caffeic acid] | 0.037 ± 0.001 | 96.599 ± 19.704 | 1.67 | 0.3 ± 0.1 | 14.7 | 5.3 ± 1.1 | 82.7 | 50.5 | 30 min | extracellular matrix accumulation / renal tubulointerstitial fibrosis (Sirius red staining) [1]: significant protective effect; macrophage infiltration (F4/80 immunostaining) [1]: significant protective effect; myofibroblast appearance/accumulation (α-SMA immunostaining) [1]: significant protective effect; Nrf2 mRNA expression [2]: significant increase; UUO-induced mRNA expression of inflammatory and fibrotic genes (Tgf-β, Tnf-α, Nf-κB, Mcp1, Fn, Col I, Col III) ([2]; vs UUO + vehicle): downregulated; CAT enzyme activity in obstructed kidney [3]: significantly increased; Cu/Zn-SOD enzyme activity in obstructed kidney [3]: significantly increased; GPX enzyme activity in obstructed kidney [3]: not significantly different; UUO-induced increase in protein carbonyl level in obstructed kidney [4]: slight decrease in carbonyl level which did not reach statistical significance; concentration at 24 h ([5]; obstructed kidney, read-out: Concentration in obstructed kidney): 0.144 ± 0.013 µM; Concentration in obstructed kidney ([5]; UUO mice after ingestion of 25 mg/kg A. borbonica extract (gavage), 24 h after administration, n = 7, mean ± SD): 0.144 ± 0.013 µM; Concentration in urine ([5]; UUO mice after ingestion of 25 mg/kg A. borbonica extract (gavage), n = 7, mean ± SD, listed as CA): 96.599 ± 19.704 µM; tmax ([6]; C57BL/6J, mouse, plasma, po, 25 mg/kg, plasma, read-out: tmax): ≤ 30 min; bioavailability ([6]; C57BL/6J, mouse, plasma, read-out: Bioavailability F): 0.4%
2 | COc1cc(/C=C/C(=O)O)ccc1O [Ferulic acid, ferulic acid] | 0.426 ± 0.099 | 38.002 ± 5.021 | 1.64 | 0.4 ± 0.1 | 17.9 | 4.5 ± 0.8 | 77.5 | 68.3 ± 8.3 | same tmax as CA | Concentration in urine ([5]; UUO mice after ingestion of 25 mg/kg A. borbonica extract (gavage), n = 7, mean ± SD, listed as FA): 38.002 ± 5.021 µM; spatial distribution in obstructed kidney (DESI-HR/MS imaging) [7]: in the renal cortex

— article PMC8065974 (Biomedicines, 2021)
